Source: US20260294946A1, “METHOD TO REDUCE FEED CONVERSION RATIO IN A FARMED ANIMAL” (Inbiose N.V., priority 2023, published 2026)

Legend:
[1] = Trial in calves: live weight, average daily gain, feed intake, feed conversion ratio (12 weeks); type: in vivo, Holstein Friesian calves
From the text: Holstein Friesian calves (2- to 3-week-old, 95% male) were transported from different farms to the experimental facility of Denkavit (Voorthuizen, The Netherlands) where the animals were reared. The calves were randomly and gender-equally divided in four groups based on experimental calf milk replacer (CMR): group A (placebo—standard CMR powder of the farm), group B (standard CMR powder supplemented with 0.005% dry wt. 2′FL), group C (standard CMR powder supplemented with 0.025% dry wt. 3′SL and 0.015% w/w 6′SL) and group D (standard CMR powder supplemented with 0.005% dry wt. 2′FL, 0.025% dry wt. 3′SL and 0.015% dry wt. 6′SL). The calf milk replacer was administered as a liquid to the calves (water was added to the CMR powder to obtain 150 grams CMR powder per liter liquid CMR). Each group involved 100 calves, assigned into four rows (25 calves per row) of two compartment blocks. Each row contained five pens, where four to six calves were living in one pen.
Starting from the day of arrival, calves received standard calf milk replacer (CMR) during a period of 9 weeks. Group A only received the CMR, while the CMR supplied to groups B, C and D was supplemented with MMOs as outlined in the section titled “Animals.” Calf starter (concentrates) and straw were introduced gradually from day 6 till the end of the experiment (12 weeks) while calves had access to corn silage at week 11 and 12. Feeds were provided ad libitum to calves twice a day in the morning and evening and were daily recorded based on rows (concentrates, straw, corn silage) or groups (CMR) consumption.
Calves were followed up by the farm staff since arrival until 12 weeks. Fecal consistency in scale 1-4 (Larson et al., 1977, J. Dairy Science, 60(6): p. 989-991) was recorded daily for the first ten days since arrival. Number of mortalities and signs of adverse effects were registered daily. The animals were treated prophylactically or metaphylactically (herd treatment) with 1 g oxytetracycline 100% (at day 4), 0.5 g Doxylin 50% WSP and 0.8 g Bromhexine 2% (at day 13), and 3.1 ml Tilmicosol 250 mg/ml (at day 24) to prevent and/or treat acute lung inflammation. Individual treatments were followed by remarks of the farm staff and diagnostics of farm veterinary practitioners. Disease incidences and medicinal usage based on individual treatments were recorded to compare between treatment groups. The incidence of diarrhea was 0% in all groups at the start of the study, and 1% (%; group A), 0% (group B), 1% (group C) and 2% (group D) after 12 weeks. Live weight of the animals was monitored at arrival (d1), two weeks (W2), six weeks (W6), ten weeks (W10) and 12 weeks (W12) since arrival. Feed conversion ratio (FCR) of each period was computed based on the input of daily weight gain and daily feed intake.
Prior to analysis, the data of live weight and FCR were checked for outliers. A data point was considered an outlier if it could reasonably be expected that observed trail results were due to other factors than the treatment, e.g., due to sickness. An ANCOVA model as below was used to analyze the live weight data (R version 4.1.2.).
Differences among means with P<0.05 were accepted as significant. Differences among means with 0.05<P<0.10 were accepted as tendency. Multiple comparisons were done with Tukey.
Other performance data were analyzed using a mixed linear model using treatments as fixed and Row as random term using 1me in the nlme package.

[2] = Feed conversion ratio of a farm animal (general statement); type: in vivo; conditions: administered to a farm animal
Blautia obeum = experiment: Fecal samples of piglets, 16S rRNA sequencing; type: in vivo
Procedure: (§1) On d22, from one piglet per pen (piglet with median weight at weaning) a fresh feces sample was collected and stored at −80° C. Total fecal DNA of 16 selected piglets (1 per pen) were extracted from 200 mg feces. ZymoBIOMICS™ DNA miniprep kit (Zymo Research) in combination with a FASTPREP® 24 device was used to extract and purify the microbial DNA as instructed by the manufacturer. Purified total DNA were eluted in 100 μl and were quickly checked for the concentration and quality using Nanodrop (Implen NANOPHOTOMETER®) before storage at −20° C.
(§2) Total DNA were submitted to Eurofins (GATC, Germany) to perform 16S rRNA sequencing using their INVIEW microbiome high specificity package. Briefly, total DNA were first amplified the hyper-variable regions 16S and integrated the barcodes through PCR. The PCR products were purified, then ligated with adapter for library preparation. The sequencing was done using PacBio sequencing technology, guaranteed for 25000 reads, mean read length […].
(§3) Amplicon analysis was performed using Mothur pipeline (mothur.org). Processing of the raw sequencing data was done according to the Mothur standard operating procedure (mothur.org/wiki/MiSeq_SOP). Alignment was accomplished using DAIRYdb 16S rRNA gene database (GitHub—marcomeola/DAIRYdb). Sequences were classified and any sequences classified as Chloroplast, Mitochondria, unknown, Archaea, or Eukaryota were removed from the data set. Preclustering of the sequences and removal of chimeric sequences using a Mothur-formatted version of the Ribosomal Database Project (RDP) training set and uchime, based on the Mothur protocol. Sequences were classified into Operational Taxonomic Units (OTUs) of ≥97% sequence identity. Singleton and doubleton reads were removed.
(§4) Data statistics of 16S data and figure plotting were performed in RStudio (rstudio.com/). Microbiome data was normalized in relative abundance or cpm (counts per million). The treatment effect of 2′FL in the microbiome abundance data was evaluated on normalized relative abundance (in %) using Mann-Whitney U test.

[3] = tested on: Faecalibacterium prausnitzii; experiment: Fecal samples of piglets, 16S rRNA sequencing; type: in vivo
Procedure: as §1, §2, §3, §4

Lactobacillus mucosae = experiment: Fecal samples of piglets, 16S rRNA sequencing; type: in vivo
Procedure: as §1, §2, §3, §4

Prevotella Sp. RS2 = experiment: Fecal samples of piglets, 16S rRNA sequencing; type: in vivo
Procedure: as §1, §2, §3, §4

For 2′-fucosyllactose [2′FL], the Live weight ([1]; W 0 (arrival), mean ± SD) was 45.6 ± 2.8 kg, the “Feed conversion ratio (FCR)” value ([1]; W 0-W 2) was 1.34 and the Average daily gain ([1]; W 0-W 2, mean ± SD) was 600.1 ± 155.0 g/day. For the same substance, the “Feed conversion ratio (FCR)” value ([1]; W 0-W 6) was 1.53, the “Feed conversion ratio (FCR)” value ([1]; W 0-W 10) was 2.01 and the “Feed conversion ratio (FCR)” value ([1]; W 0-W 12) was 2.28. The Average daily gain ([1]; W 0-W 12, mean ± SD) was 1099.5 ± 141.7 g/day, the Live weight ([1]; W 2, mean ± SD) was 54.0 ± 3.3 kg and the “Feed conversion ratio (FCR)” value ([1]; W 2-W 6) was 1.67. For the same substance, the Average daily gain ([1]; W 2-W 6, mean ± SD) was 954.9 ± 176.8 g/day, the Live weight ([1]; W 6, mean ± SD) was 80.7 ± 7.1 kg and the “Feed conversion ratio (FCR)” value ([1]; W 6-W 10) was 2.51. The Average daily gain ([1]; W 6-W 10, mean ± SD) was 1267.9 ± 202.2 g/day, the “Feed conversion ratio (FCR)” value ([1]; W 6-W 12) was 2.76 and the Live weight ([1]; W 10, mean ± SD) was 116.2 ± 11.0 kg. The “Feed conversion ratio (FCR)” value ([1]; W 10-W 12) was 3.44, the Average daily gain ([1]; W 10-W 12, mean ± SD) was 1484.6 ± 260.7 g/day and the Live weight ([1]; W 12, mean ± SD) was 136.8 ± 12.7 kg. For the same substance, the “Average feed intake, CMR” value ([1]; calf milk replacer, 12 weeks trial) was 42.3 kg, the “Average feed intake, Concentrates” value ([1]; concentrates, 12 weeks trial, mean ± SD) was 131.6 ± 6.2 kg and the “Average feed intake, Corn silage” value ([1]; corn silage, mean ± SD) was 14.8 ± 1.3 kg. The “Average feed intake, Straw” value ([1]; straw, 12 weeks trial, mean ± SD) was 16.0 ± 0.8 kg, the “decrease of the feed conversion ratio” value [2] was “strong decrease” and the effect on abundance (Blautia obeum; d 22) was “promoted”. For the same substance, the “Relative abundance in fecal samples” value (Blautia obeum; weaning day (d 22), P=0.0428 vs control) was 0.1672%, the effect on abundance ([3]; d 22) was “promoted” and the “Relative abundance in fecal samples” value ([3]; weaning day (d 22), P=0.00965 vs control) was 0.278%. The effect on abundance (Lactobacillus mucosae; d 22) was “promoted”, the “Relative abundance in fecal samples” value (Lactobacillus mucosae; weaning day (d 22), P=0.0263 vs control) was 0.1586% and the effect on abundance (Prevotella Sp. RS2; d 22) was “inhibited”. For the same substance, the “Relative abundance in fecal samples” value (Prevotella Sp. RS2; weaning day (d 22), P=0.0129 vs control) was 0.1093%.
